# Results published in patent publication US6518458B1, “(Aminoiminomethyl) amino) alkane-carboxamides and their applications in therapy” (Merck Patent GmbH, priority 1999, dated 2003).
# Structures can show the parent of a compound that is named as a salt. Where two headings read alike, the source gives them in different places.
# Key:
# [1] = system: Nostz rat; assay: Antidiabetic activity in the Nostz rat (non-insulin-dependent diabetes induced using streptozotocin); assay type: in vivo; conditions: po, 2 h, blood 2 h after final administration, diabetic rats, read-out: percentage change in glycaemia relative to d0 (before treatment); for change in vivo at 20 mg/kg: 20 mg/kg/d oral; for change in vivo at 200 mg/kg: 200 mg/kg/d oral
# Protocol: The antidiabetic activity of the compounds of formula (I) was determined orally on an experimental model of non-insulin-dependent diabetes induced in the rat using streptozotocin.
# The model of non-insulin-dependent diabetes is obtained in rats by neonatal injection (on the day of birth) of streptozotocin.
# The diabetic rats used are 8 weeks old. The animals are kept from the day of their birth to the day of the experiment in an animal house at a regulated temperature of from 21 to 22° C. and are subjected to a fixed cycle of light (from 7.00 am to 7.00 pm) and darkness (from 7.00 pm to 7.00 am). Their diet consisted of a maintenance diet; water and food were provided ad libitum, except for the 2 hours fasting prior to the tests in which food is withdrawn (post-absorptive state).
# The rats are treated orally for one (d1) or four (d4) days with the test product. Two hours after the final administration of the product and 30 minutes after anaesthesia of the animals with sodium pentobarbital (Nembutalo®), […] of blood is sampled from the end of the tail.
melting point,Structure (SMILES),change in vivo at 20 mg/kg ([1]; d1 (one day of treatment)),change in vivo at 20 mg/kg ([1]; d4 (four days of treatment)),change in vivo at 200 mg/kg ([1]; d1 (one day of treatment)),change in vivo at 200 mg/kg ([1]; d4 (four days of treatment))
159 to 161 °C,Cc1cccc(C)c1NC(=O)[C@H](C)NC(=N)N (as salt: HCl) [Compound 6],,,,
,N=C(N)NCC(=O)Nc1c(Cl)cccc1Cl [Compound 12],-9%,-13%,-14%,-27%
> 260 °C,Cc1cc(C)c(NC(=O)CNC(=N)N)c(C)c1 (as salt: HCl) [Compound 7],,,,
,Cc1cc(C)c(NC(=O)CNC(=N)N)c(C)c1 [Compound 7],-9%,-9%,-3%,-10%
255 to 257 °C,Cc1cccc(C)c1NC(=O)CNC(=N)N [Example 1],-3%,-7%,-20%,-24%
,CSc1cc(C)nc(SC)c1NC(=O)CNC(=N)N [Example 3],7%,-7%,-5%,-4%
144 to 146 °C,N=C(N)NCC(=O)NCc1ccccc1 (as salt: HCl) [Compound 15],,,,
,N=C(N)NCC(=O)N(Cc1ccccc1)Cc1ccccc1 [Compound 11],-14%,-9%,-3%,-16%
,Cc1cccc(C)c1NC(=O)CN(C)C(=N)N [Example 5],-2%,-7%,-16%,-25%
217 to 219 °C,N=C(N)NCC(=O)N(Cc1ccccc1)Cc1ccccc1 (as salt: HCl) [Compound 11],,,,
,Cc1cccc(C)c1NC(=O)[C@H](C)NC(=N)N [Compound 6],8%,-3%,-4%,-18%
181 to 183 °C,N=C(N)NCC(=O)Nc1c(Cl)cccc1Cl (as salt: HCl) [Compound 12],,,,
227 to 229 °C,Cc1cccc(C)c1NC(=O)CN(C)C(=N)N (as salt: HCl) [Example 5],,,,
249 to 251 °C,CSc1cc(C)nc(SC)c1NC(=O)CNC(=N)N (as salt: HCl) [Example 3],,,,
223 to 225 °C,Cc1cccc(C)c1NC(=O)CCNC(=N)N [Example 4],-1%,-11%,-13%,-15%
,Cc1cccc(C)c1NC(=O)[C@H](CC(C)C)NC(=N)N [Compound 9],-4%,-15%,7%,-4%
,CCC(C)[C@H](NC(=N)N)C(=O)Nc1c(C)cccc1C (stereo partly drawn) [Compound 8],-11%,-14%,-8%,-10%
,Cc1cccc(C)c1NC(=O)[C@H](C(C)C)N(C)C(=N)N [Compound 10],-13%,-15%,-3%,-16%
260 to 262 °C,CC(C)c1cccc(C(C)C)c1NC(=O)CNC(=N)N (as salt: HCl) [Compound 2],,,,
